This is an account of results in patent publication US11591342B2, “Heterocyclic compound, application thereof and pharmaceutical composition comprising same” (SUZHOU SINOVENT PHARMACEUTICALS CO., LTD., priority 2018, dated 2023).

Structures are written as SMILES. pIC50: −log10 of the molar value.

The target of one data set is Autotaxin (ATX) (Homo sapiens (Human), UniProt Q13822). Description: ATX bioactivity assay (Amplex Red / choline oxidase / HRP fluorescence, LPC 16:0 substrate). The format is biochemical. The note with it: 30 min room temperature.
In the next data set the test system is LPA18:2 in mouse plasma. As to the kind of experiment: Inhibition of LPA in mouse plasma (plasma LPA18:2 assay, LC-MS/MS). The format is biochemical, CD1 mice. The note with it: fresh CD1 mouse plasma, LPA18:2, 37° C. for 120 min. The procedure: Effect Example 2. Inhibition of LPA in Mouse Plasma by Compounds
20 mM stock solutions of the compounds were prepared with DMSO and then diluted to 1 mM, which was subjected to a serial 3-fold dilution to yield 10 working solutions.
Collection of Fresh Mouse Plasma:
CD1 mice were euthanized by CO2 inhalation. Approximately 1 mL of whole blood was taken by cardiac puncture, with EDTA-K2 for anticoagulation. The blood was centrifuged at 3220 g for 10 min at 4° C. for plasma collection.
Reactions were performed in a 96-well plate, and the samples were tested in duplicate. 1 μL of each working solution was added to 100 μL of plasma, with the final concentrations of […]. 1 μL of DMSO was added to plasma to serve as blank. The samples were incubated in a water bath at 37° C. for 120 min, and 600 μL of 10 μM tolbutamide in methanol was added to terminate the reaction. Tolbutamide also served as an internal standard. After 5 min of vortex mixing, the samples were centrifuged at 3220 g for 45 min at 4° C. to precipitate the protein. 100 μL of the supernatant was transferred to a new plate, diluted with water based on LC-MS response and peak shapes, mixed well and analyzed by LC-MS/MS.
LPA18:2 was quantified using peak area ratio (LPA18:2/internal standard), requiring no standard curve. For test compounds of different concentrations, LPA data was represented by a percentage decrease of LPA: 100-[((LPA peak area ratio of compound)/(LPA peak area ratio of control))×100]. IC50 was calculated using Graphpad Prism 6.0 software.

The target in another data set is CYP3A4 (Homo sapiens (Human), UniProt P08684). Description: Time-dependent inhibition of CYP3A4 (TDI assay, human liver microsomes). The format is in vitro ADME. The note with it: for CYP3A4 TDI % @ 10 μM: human liver microsomes, Midazolam substrate, 30 min with NADPH vs 0 min; for time-dependent inhibition on CYP3A4 (conclusion): conclusion drawn from Table 3, 10 μM. Put shortly: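 Human liver microsomes (final 1 mg/mL) preincubated with test compound for 0 min without NADPH or 30 min with NADPH in 100 mM K-phosphate pH 7.4, 37 °C. Aliquot then diluted into midazolam substrate plus NADPH and incubated 15 min at 37 °C. Quenched with acetonitrile; metabolite read by LC-MS/MS.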
Sequence of CYP3A4 (P08684 whole entry): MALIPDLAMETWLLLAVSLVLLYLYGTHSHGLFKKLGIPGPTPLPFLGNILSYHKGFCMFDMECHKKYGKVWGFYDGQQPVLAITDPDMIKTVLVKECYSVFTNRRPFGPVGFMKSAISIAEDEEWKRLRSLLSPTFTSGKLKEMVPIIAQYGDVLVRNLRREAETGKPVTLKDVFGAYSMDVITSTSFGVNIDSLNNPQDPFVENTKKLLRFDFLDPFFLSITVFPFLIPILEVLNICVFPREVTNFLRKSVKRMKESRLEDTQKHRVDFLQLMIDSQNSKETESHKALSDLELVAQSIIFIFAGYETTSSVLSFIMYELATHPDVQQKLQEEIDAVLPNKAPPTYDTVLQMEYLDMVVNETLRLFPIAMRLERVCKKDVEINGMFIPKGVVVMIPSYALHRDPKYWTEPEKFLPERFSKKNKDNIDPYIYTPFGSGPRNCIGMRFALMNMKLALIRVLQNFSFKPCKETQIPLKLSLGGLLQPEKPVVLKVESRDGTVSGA
For orientation: Microsomes from liver hold many membrane-bound enzymes, among them those of drug oxidation.

A word on the pIC50: it is the negative decadic logarithm of the IC50, by convention in mol/L. Read a high pIC50 as a low IC50. On to `CCN(c1nc(-c2ccc(F)cc2)c(C#N)s1)c1c2cc(N3CCN(CC(=O)N4CC(O)C4)CC3)cc(F)c2nn1CC` [Compound S-0122, 2-(ethyl(2-ethyl-7-fluoro-5-(4-(2-(3-hydroxyazetidin-1-yl)-2-oxoethyl)piperazin-1-yl)-2H-indazol-3-yl)amino)-4-(4-fluorophenyl)thiazole-5-carbonitrile], for which the pIC50 on Autotaxin (ATX) was 7.60. The compound further had a pIC50 in the data set on LPA18:2 in mouse plasma of 7.21. Further, at CYP3A4, the “CYP3A4 TDI % @ 10 μM” value is 38.25% and the “time-dependent inhibition on CYP3A4 (conclusion)” value (shortened to “time-dependent inhibition”) is recorded as “weak time-dependent inhibition on CYP3A4”.

Turning to `CCn1nc2c(F)cc(N3CCN(CC(=O)N4CC(O)C4)CC3)cc2c1N(C)c1nc(-c2ccc(F)cc2)c(C#N)s1` [Compound S-0025, 2-((2-ethyl-7-fluoro-5-(4-(2-(3-hydroxyazetidin-1-yl)-2-oxoethyl)piperazin-1-yl)-2H-indazol-3-yl)(methyl)amino)-4-(4-fluorophenyl)thiazole-5-carbonitrile], the pIC50 at Autotaxin (ATX) is 7.06. In the data set on LPA18:2 in mouse plasma, this compound had a pIC50 of 6.88. For the same compound, at CYP3A4, the “CYP3A4 TDI % @ 10 μM” value is reported as 34.21% and the “time-dependent inhibition” value is “weak time-dependent inhibition on CYP3A4”.

With `CCN(c1nc(-c2ccc(F)cc2)c(C#N)s1)c1c2nc(N3CCN(CC(=O)N4CC(O)C4)CC3)cc(C)c2nn1CC` [Compound S-0124, 2-(ethyl(2-ethyl-5-(4-(2-(3-hydroxyazetidin-1-yl)-2-oxoethyl)piperazin-1-yl)-7-methyl-2H-pyrazolo[4,3-b]pyridin-3-yl)amino)-4-(4-fluorophenyl) thiazole-5-carbonitrile], the negative-log IC50 (pIC50) at Autotaxin (ATX) was 7.62. For the same compound, the pIC50 in the data set with LPA18:2 in mouse plasma is 7.02. On CYP3A4, the “CYP3A4 TDI % @ 10 μM” value stood at 8.74% and the “time-dependent inhibition” value was “no time-dependent inhibition on CYP3A4”.

For `CCc1nc2ncc(N3CCN(CC(=O)N4CC(O)C4)CC3)cn2c1N(C)c1nc(-c2ccc(F)cc2)c(C#N)s1` [Compound S-0021, 2-((2-ethyl-6-(4-(2-(3-hydroxyazetidin-1-yl)-2-oxoethyl)piperazin-1-yl)imidazo[1,2-a]pyrimidin-3-yl)(methyl)amino)-4-(4-fluorophenyl)thiazole-5-carbonitrile], the pIC50 against Autotaxin (ATX) is 6.99; in the data set on LPA18:2 in mouse plasma it was 6.10. For the same compound, the “CYP3A4 TDI % @ 10 μM” value on CYP3A4 came to 1.67%. On CYP3A4, the “time-dependent inhibition” value is given as “no time-dependent inhibition on CYP3A4”.

Turning to `CCc1nn2c(C)cc(N3CCN(CC(=O)N4CC(O)C4)CC3)nc2c1N(C)c1nc(-c2ccc(F)cc2)c(C#N)s1` [Compound S-0035, 2-((2-ethyl-5-(4-(2-(3-hydroxyazetidin-1-yl)-2-oxoethyl)piperazin-1-yl)-7-methylpyrazolo[1,5-a]pyrimidin-3-yl)(methyl)amino)-4-(4-fluorophenyl)thiazole-5-carbonitrile], the values for the pIC50 on Autotaxin (ATX) and in the data set on LPA18:2 in mouse plasma were 7.21 and 6.52, respectively. The “CYP3A4 TDI % @ 10 μM” value on CYP3A4 is listed as −4.84%. The “time-dependent inhibition” value on CYP3A4 is recorded as “no time-dependent inhibition on CYP3A4”.

At Autotaxin (ATX), `CCc1[nH]c2ccc(N3CCN(CC(=O)N4CC(O)C4)CC3)nc2c1N(C)c1nc(-c2ccc(F)cc2)c(C#N)s1` [Compound S-0098, 2-((2-ethyl-5-(4-(2-(3-hydroxyazetidin-1-yl)-2-oxoethyl)piperazin-1-yl)-1H-pyrrolo[3,2-b]pyridin-3-yl)(methyl)amino)-4-(4-fluorophenyl) thiazole-5-carbonitrile] gave a pIC50 of 7.51. The compound further showed a pIC50 with LPA18:2 in mouse plasma of 8.70. In addition, on CYP3A4, the “CYP3A4 TDI % @ 10 μM” value amounted to 37.19% and the “time-dependent inhibition” value is “weak time-dependent inhibition on CYP3A4”.
